# Reference: PubChem BioAssay (NCI)
#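 1) Cells in 96-well plates. 2) Compound, 48 h, 5 concentrations. 3) Linear interpolation between surrounding doses. 4) Unreached endpoint = highest concentration. GI50 = concentration required for 50% inhibition of growth. TGI marks complete inhibition of growth.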
# Assays:
# Test in all cases: inhibition of tumour cell growth, NCI panel, 48 h
# [1] = tested on: HT29 colon
# [2] = tested on: NCI-H460 lung
# [3] = tested on: RPMI-8226 leukemia
# [4] = tested on: K-562 leukemia
# [5] = tested on: SR leukemia
# [6] = tested on: T-47D breast
# [7] = tested on: HOP-62 NSCLC
# [8] = tested on: UO-31 renal
# [9] = tested on: U251 CNS
# [10] = tested on: SK-MEL-28 melanoma
# [11] = tested on: UACC-62 melanoma
# [12] = tested on: KM12 colon
# [13] = tested on: A498 renal
# [14] = tested on: SK-MEL-5 melanoma
# [15] = tested on: RXF 393 renal
# [16] = tested on: SW-620 colon
# [17] = tested on: M14 melanoma
# [18] = tested on: NCI-H23 lung
# [19] = tested on: OVCAR-5 ovarian
# [20] = tested on: HL-60(TB) leukemia
# [21] = tested on: BT-549 breast
# [22] = tested on: MALME-3M melanoma
# [23] = tested on: MDA-MB-231 breast
# [24] = tested on: A549 NSCLC
# [25] = tested on: EKVX NSCLC
# [26] = tested on: HCC-2998 colon
# [27] = tested on: OVCAR-8 ovarian
# [28] = tested on: LOX IMVI melanoma
# [29] = tested on: HCT-15 colon
smiles,measurement,setting,value
Cc1ccc2nc3ccccc3c(NCc3ccccc3)c2c1,GI50,[1],1.54 µM
same,TGI,[1],7.43 µM
same,GI50,[2],2.07 µM
same,TGI,[2],7.44 µM
same,GI50,[3],1.56 µM
same,TGI,[3],6.45 µM
same,GI50,[4],1.46 µM
same,TGI,[4],8.78 µM
same,GI50,[5],1.31 µM
same,TGI,[5],3.62 µM
same,GI50,[6],7 µM
same,TGI,[6],18.8 µM
same,GI50,[7],3.77 µM
same,TGI,[7],12.5 µM
same,GI50,[8],1.44 µM
same,TGI,[8],7.5 µM
same,GI50,[9],2.49 µM
same,TGI,[9],10.2 µM
same,GI50,[10],6.67 µM
same,TGI,[10],14 µM
same,GI50,[11],5.9 µM
same,TGI,[11],12.8 µM
same,GI50,[12],5.13 µM
same,TGI,[12],12.6 µM
same,GI50,[13],1.24 µM
same,TGI,[13],6.9 µM
same,GI50,[14],4.46 µM
same,TGI,[14],10.5 µM
same,GI50,[15],1.42 µM
same,TGI,[15],5.4 µM
same,GI50,[16],1.76 µM
same,TGI,[16],7.85 µM
same,GI50,[17],5.83 µM
same,TGI,[17],13 µM
same,GI50,[18],3.69 µM
same,TGI,[18],11.9 µM
same,GI50,[19],2.81 µM
same,TGI,[19],9.92 µM
same,GI50,[20],3.49 µM
same,TGI,[20],12.7 µM
same,GI50,[21],5.13 µM
same,TGI,[21],11.7 µM
same,GI50,[22],4.25 µM
same,TGI,[22],11 µM
same,GI50,[23],3.33 µM
same,TGI,[23],10.5 µM
same,GI50,[24],2.63 µM
same,TGI,[24],10.9 µM
same,GI50,[25],5.07 µM
same,TGI,[25],12.9 µM
same,GI50,[26],1.86 µM
same,TGI,[26],6.86 µM
same,GI50,[27],2.32 µM
same,TGI,[27],11.1 µM
same,GI50,[28],1.67 µM
same,TGI,[28],6.15 µM
same,GI50,[29],2.01 µM
same,TGI,[29],7.64 µM
